US20250346585A1 (Alexion Pharmaceuticals, Inc., priority 2022, published 2025)

These molecules were tested against Human complement C1s enzyme (Homo sapiens (Human), UniProt P09871) (assay: Human C1s enzyme assay). Conditions: Human C1s enzyme assay of Example 3; read-out: IC50 (Stars).
Assay type: biochemical
Method in brief: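 IC50 derived by nonlinear regression of rate versus concentration, with rate taken from A405 kinetics (30 s intervals, 30 min) after adding 100 μM each Z-L-Lys-SBzl and DTNB. C1s from human serum, 1.16 nM, exposed to compound for 5 min at RT beforehand; buffer 50 mM Tris, 1 M NaCl, pH 7.5.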

Sequence of Human complement C1s enzyme (P09871 438-688 limits assumed): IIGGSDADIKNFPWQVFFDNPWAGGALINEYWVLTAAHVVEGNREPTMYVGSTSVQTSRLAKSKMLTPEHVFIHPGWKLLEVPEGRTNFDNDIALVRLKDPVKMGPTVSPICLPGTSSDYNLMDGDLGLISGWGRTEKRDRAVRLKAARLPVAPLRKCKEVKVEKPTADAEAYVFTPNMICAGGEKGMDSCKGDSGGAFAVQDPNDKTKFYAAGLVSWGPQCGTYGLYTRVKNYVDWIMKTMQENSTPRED
Sequence of Human complement C1s enzyme (P09871 16-437 partner limits assumed): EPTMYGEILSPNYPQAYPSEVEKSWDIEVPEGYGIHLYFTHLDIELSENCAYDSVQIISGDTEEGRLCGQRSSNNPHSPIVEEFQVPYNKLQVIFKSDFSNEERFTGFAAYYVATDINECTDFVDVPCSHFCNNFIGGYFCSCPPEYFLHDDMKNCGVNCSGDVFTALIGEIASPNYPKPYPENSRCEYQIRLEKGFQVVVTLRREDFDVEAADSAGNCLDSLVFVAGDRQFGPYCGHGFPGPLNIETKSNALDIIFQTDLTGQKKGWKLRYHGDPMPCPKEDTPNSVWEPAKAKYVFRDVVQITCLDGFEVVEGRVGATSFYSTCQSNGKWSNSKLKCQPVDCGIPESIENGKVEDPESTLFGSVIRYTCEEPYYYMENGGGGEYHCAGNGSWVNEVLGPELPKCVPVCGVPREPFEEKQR

| SMILES | IC50 |
| --- | --- |
| C[C@@H](NC(=O)[C@@H]1C[C@@H](OC(F)(F)F)CN1C(=O)CNC(=O)c1ccc2c(c1)-c1ccccc1C2(F)F)c1cc(C(=N)N)cs1 [Compound 159, (2S,4R)—N—((R)-1-(4-carbamimidoylthiophen-2-yl)ethyl)-1-((9,9-difluoro-9H-fluorene-3-carbonyl)glycyl)-4-(trifluoromethoxy)pyrrolidine-2-carboxamide] | < 100 nM |
| Cc1cc(C(=O)NCC(=O)N2C[C@H](OC(F)F)C[C@H]2C(=O)N[C@H](C)c2cc(C(=N)N)cs2)ccc1Oc1ccccc1 [Compound 24, (2S,4R)—N—((R)-1-(4-carbamimidoylthiophen-2-yl)ethyl)-4-(difluoromethoxy)-1-((3-methyl-4-phenoxybenzoyl)glycyl)pyrrolidine-2-carboxamide] | < 100 nM |
| CO[C@@H]1C[C@@H](C(=O)NCc2cc(-c3c[nH]c([N+](=O)[O-])n3)cs2)N(C(=O)CNC(=O)c2ccc(Oc3ccc(F)cc3)cc2)C1 [Compound 156, (2S,4R)-1-((4-(4-fluorophenoxy)benzoyl)glycyl)-4-methoxy-N-((4-(2-nitro-1H-imidazol-4-yl)thiophen-2-yl)methyl)pyrrolidine-2-carboxamide] | > 1000 nM |

Same assay, conditions: Human complement C1s enzyme 1.16 nM, substrate Z-L-Lys-SBzl 100 μM, assay of Example 3; read-out: IC50 (Stars)

| SMILES | IC50 |
| --- | --- |
| C[C@@H](NC(=O)[C@@H]1CC2(CN1C(=O)CNC(=O)c1ccc3c(c1)Oc1ccccc1N3)OCCO2)c1cc(C(=N)N)cs1 [Compound 294, N-(2-((S)-8-(((R)-1-(4-carbamimidoylthiophen-2-yl)ethyl)carbamoyl)-1,4-dioxa-7-azaspiro[4.4]nonan-7-yl)-2-oxoethyl)-10H-phenoxazine-3-carboxamide] | < 100 nM |
| C[C@@H](NC(=O)[C@@H]1C[C@@H](OC(F)F)CN1C(=O)CN1Cc2cc(-c3ccccc3)ccc2C1=O)c1cc(C(=N)N)cs1 [Compound 385, (2S,4R)—N—((R)-1-(4-carbamimidoylthiophen-2-yl)ethyl)-4-(difluoromethoxy)-1-(2-(1-oxo-5-phenylisoindolin-2-yl)acetyl)pyrrolidine-2-carboxamide] | < 100 nM |
| C[C@@H](NC(=O)[C@@H]1C[C@@H](CO)CN1C(=O)CNC(=O)c1ccc2c(c1)-c1ccccc1C2(F)F)c1cc(C(=N)N)cs1 (relative stereo) [Compound 305, (2S,4R*)—N—((R)-1-(4-carbamimidoylthiophen-2-yl)ethyl)-1-((9,9-difluoro-9H-fluorene-3-carbonyl)glycyl)-4-(hydroxymethyl)pyrrolidine-2-carboxamide] | < 100 nM |
| C[C@@H](NC(=O)[C@@H]1CC2(CN1C(=O)CNC(=O)c1ccc3nc4ccccc4cc3c1)OCCO2)c1cc(C(=N)N)cs1 [Compound 391, (S)-7-((acridine-2-carbonyl)glycyl)-N—((R)-1-(4-carbamimidoylthiophen-2-yl)ethyl)-1,4-dioxa-7-azaspiro[4.4]nonane-8-carboxamide] | < 100 nM |
| N=C(N)c1csc(CNC(=O)[C@@H]2CC3(CN2C(=O)CNC(=O)c2ccc(-c4ccc(C(=O)O)cc4F)cc2)OCCO3)c1 [Compound 242, (S)-4′-((2-(8-(((4-carbamimidoylthiophen-2-yl)methyl)carbamoyl)-1,4-dioxa-7-azaspiro[4.4]nonan-7-yl)-2-oxoethyl)carbamoyl)-2-fluoro-[1,1′-biphenyl]-4-carboxylic acid] | < 100 nM |
| Cc1ccc(-c2cnc(C(=O)NCC(=O)N3CC4(C[C@H]3C(=O)N[C@H](C)c3cc(C(=N)N)cs3)OCCO4)c(F)c2)cc1 [Compound 388, (S)—N—((R)-1-(4-carbamimidoylthiophen-2-yl)ethyl)-7-((3-fluoro-5-(p-tolyl)picolinoyl)glycyl)-1,4-dioxa-7-azaspiro[4.4]nonane-8-carboxamide] | < 100 nM |
| C[C@@H](NC(=O)[C@@H]1C[C@@H](S(C)(=O)=O)CN1C(=O)CNC(=O)c1ccc2c(c1)Oc1ccccc1S2)c1cc(C(=N)N)cs1 [Compound 333, (2S,4R)—N—((R)-1-(4-carbamimidoylthiophen-2-yl)ethyl)-4-(methylsulfonyl)-1-((phenoxathiine-3-carbonyl)glycyl)pyrrolidine-2-carboxamide] | < 100 nM |
